Data: patent US20110294741A1, “USE OF COMPOUNDS IN THE TREATMENT OF TAU-INDUCED CYTOTOXICITIES” (Bioalvo-Servicos, Investigacao e Desenvolvimento em …, priority 2008, published 2011)

Tests used:
[1] = Partition of peptide into lipid bilayer vesicles (fluorescence titration); type: physicochemical
From the text: Vesicles of zwiterionic lipid, POPC ([…]), and POPC with negative lipid, POPG in different proportions: 80:20 ▪, 50:50 and 30:70 ? until 100% POPG ( ? ). The unit of 1/1 w on the y axis is the ratio between fluorescence intensities.
Vesicles of zwiterionic lipid, POPC, and POPC with negative lipid, POPG, in the proportion 50 POPC: 50 POPG.
As can be observed, the fluorescence intensity of the phenolic moiety increases due to the insertion in the apolar environment created by the lipids. Negative lipids (other symbols) inhibit the interaction due to charge repulsion. […] KTP-NH2 is therefore suitable for i.v. or i.p. administration. KTP-NH2 diffuses through the blood stream, reaches the BBB, and translocates.
In order to confirm that these plasma-stable KTP-NH2 derivatives maintained their lipophilicity, their potential interaction with human cell membranes was assessed. Again, we performed biophysical studies using fluorescent methodologies (Santos N. C., Prieto M. and Castanho M. A. 2003. Quantifying molecular partition into model systems of biomembranes: an emphasis on optical spectroscopic methods. Biochim Biophys Acta 1612: 123-135.).

rats (Wister, male) [2] = assay: Tail-flick test; type: in vivo, rat
Experimental: (§1) Kyotorphin is an endogenous analgesic agent in the brain. However, Kyotorphin can not be used as an analgesic due to its inability to cross the blood-brain-barrier. […] In addition, KTP-NH2 efficacy after oral administration was also observed.
(§2) In vivo behavioural anti-nociception tests were carried out in rats (Wister, male). Unless otherwise stated, compounds were administered by intra-peritoneal (i.p.) injection. For most assays, the Tail Flick and the Hot Plate tests were used.
The tail-flick test (D'Amour F. E., Smith D. L. 1941. A method for determining the loss of pain sensation. J Pharmacol Exp Ther 1941; 72:74-79) is a standard investigative tool for pain and analgesia assessment in rodents. It is based on a spinal reflex response of the tail to radiant heat. Pain sensitivity in rats was measured as they responded to the application of radiant heat to a small area of their tails. […]
(§3) A KTP derivative was used for comparative purposes, as control. Both drugs were injected i.p. and p.o. and rats were analysed for the Hot Plate and Tail Flick tests.
Additionaly, the central action of KTP-NH2 was confirmed by experiments of naloxone-reversible analgesia. […] In order to corroborate the evidence that KTP-NH2 was exerting its analgesic effect via a central action, we analyzed the antinociceptive effect of KTP-NH2 after pretreatment with naloxone.

rats (Wister, male) [3] = assay: Increasing-temperature hot-plate test; type: in vivo, rat; settings: i.p. and p.o. administration
Experimental: as §1, §2
The hot-plate test (Eddy N. B and Leimbach D. 1953. Synthetic analgesics II. Dithienylbutenyl and dithienylbutylamines J. Pharmacol. Exp. Ther. 45: 339) evaluates a supraspinally integrated response in the form of thermal pain reflexes due to footpad contact with a heated surface. During the experiments, the animal is confined in a removable clear acrylic compartment where the latency time to the first hind paw or/and jumping responses are measured. […] The response is the licking of the hindpaw, and the corresponding plate temperature represents the recorded nociceptive end-point. […]
as §3

rats (Wister, male) [4] = assay: In vivo toxicology: hepatotoxicity markers in the plasma; parameters: species or system rat; settings: i.p. once a day 3.23 mg-100 g body mass, seven days
Experimental: (§4) The toxicological studies were carried out with rats (Wister, male) injected i.p. once a day with 3.23 mg-100 g body mass during seven days.
Liver is the major organ of toxicity. Blood samples were collected and the following hepatotoxicity markers were assayed in the plasma: • Alanine transaminase (ALT), • Aspartate transaminase (AST) • Alkaline phosphatase (ALP) • Total bilirubin (TBIL) • Gamma glutamyl transpeptidase (GGT)
Increased levels of the liver enzymes ALT, AST, ALP and GGT in the plasma indicate lesions in liver. Increased RBL would be a sign of faulty bilirubin production/hemolysis and/or bilirubin metabolism (in liver).

rats (Wister, male) [5] = assay: In vivo toxicology: histological alterations in liver, kidney and spleen; parameters: species or system rat; settings: i.p. once a day 3.23 mg-100 g body mass, seven days, hematoxylin/eosin sections
Experimental: as §4
For investigation of histological alterations in liver, kidney and spleen hematoxylin/eosin-stained sections of fixed tissue were used. Hematoxylin/eosin-stained sections were examined by an experienced pathologist.

[6] = Cytotoxicity in human hepatocytes (LDH release and ATP); type: cell-based; settings: LDH and ATP determination, read-out: LC50 (the source's name)
Experimental: Cytotoxicity was assessed with a cell-based assay using human hepatocytes. Cell death was assayed by quantifying plasma membrane damage or rupture through measurement of the release of lactate dehydrogenase (LDH) (Legrand, C. et al. 1992. Lactate dehydrogenase (LDH) activity of the cultured eukaryotic cells as marker of the number of dead cells in the medium. J. Biotechnol. 25: 231-243), a stable cytoplasmic enzyme present in most cells. Determination of cell viability was performed by quantifying ATP (Cree I. A and Andreotti P. E. 1997. Measurement of cytotoxicity by ATP-based luminescence assay in primary cell cultures and cell lines. Toxicology in vitro, 11: 553-556), a marker for cell viability because it is present in all metabolically active cells and the concentration declines very rapidly when the cells undergo necrosis or apoptosis.

Plasma stability = type: in vitro ADME, human; settings: after 1 h incubation
From the text: Drugs are exposed in plasma to enzymatic processes (proteinases, esterases), they can undergo intramolecular rearrangement or bind irreversibly (covalently) to proteins. Compounds which are not stable in plasma have inherent liability as drug candidates, as they are less capable to reach a sufficient concentration at their site of pharmacological activity.

SMILES: N=C(N)NCCCC(NC(=O)C(N)Cc1ccc(O)cc1)C(N)=O [KTP-NH2, L-Tyr-L-Arg-NH2]
- partition coefficient for POPC, compared with KTP-OH ([1]; POPC membranes, KTP-OH value from Lopes et al 2006): significantly superior to the one of KTP-OH
- local concentration in the model membrane of mammals versus surrounding bulk aqueous phase ([1]; POPC vesicles, numerical treatment of fluorescence titration data): approx. 2,500 fold
- effect of naloxone pretreatment on analgesia (rats (Wister, male) [2]; naloxone 10 min before KTP-NH2, KTP-NH2 3 mg/100 g, naloxone 0.5 mg/100 g, tail-flick): completely antagonized the analgesia
- anti-nociceptive response, time to remove tail after stimulus (Tail Flick) (rats (Wister, male) [2]; rats, i.p. and p.o. administration): clear anti-nociceptive response
- anti-nociceptive response, temperature increase tolerated in the paw (Hot Plate) (rats (Wister, male) [3]): clear anti-nociceptive response
- GGT in plasma (rats (Wister, male) [4]): below the detection limit
- hepatotoxicity markers in plasma (AST, ALT, ALP, total bilirubin) versus control animals (rats (Wister, male) [4]): no toxic effects were detected
- histological alterations in kidney and spleen (rats (Wister, male) [5]): no histological modifications were found
- histological alterations in liver (rats (Wister, male) [5]): no signs of hepatic necrosis
- CC50 [6]: > 125 µM
- stability in human plasma (Plasma stability): 14-21%
